Data published in patent US7504513B2, “Thiazolyl-benzimidazoles” (Hoffman-La Roche Inc., priority 2006, dated 2009).

Target: T1, GST-Plk1 (Homo sapiens, UniProt P53350)
T1 construct: Full-length, active GST-Plk1 was purified from Sf9 insect cells; made in house; host or cells: Sf9 insect cells
Test: Biochemical Characterization Assay: HTRF kinase assay, GST-Plk1 phosphorylation of GST-p53
Settings: full-length active GST-Plk1, GST-p53 substrate, ATP, 37° C. for 35 minutes, HTRF signal
Experimental: Full-length, active GST-Plk1 was purified from Sf9 insect cells, and full-length GST-p53 was purified in E. coli. Anti-phospho p53 antibody was purchased from Cell Signaling Technology. Europium-conjugated anti-rabbit antibody was purchased from PerkinElmer Life and Analytical Sciences. APC-conjugated anti-GST antibody was purchased from Prozyme.
To two microliters of compound (0.6 nM-4 mM) in DMSO or plain DMSO for control wells, 38 microliters of 20 mM HEPES pH 7, 50 mM NaCl, 10 mM MgCl2, 0.5 mM TCEP, 0.1 mM sodium orthovanadate, 0.1 mg/ml BSA, and 0.05% Triton X-100 (Kinase Assay Buffer) were added. Eight microliters of the compound solution were added to a 384-well black microtiter plate, followed by six microliters of GST-p53 (17 ug/ml) and ATP (333 uM) in Kinase Assay Buffer. Six microliters of GST-Plk1 (3 ug/ml) in Kinase Assay Buffer were then added and the solution incubated at 37° C. for 35 minutes. Six microliters of solution containing 43 mM EDTA to stop the reaction and a 1:600 dilution of anti-phospho-p53 antibody in 20 mM HEPES pH 7, 50 mM NaCl, and 0.5 mg/ml BSA (Antibody Binding Buffer) were added and the solution incubated at 37° C. for 30 minutes. Six microliters of solution containing 9 nM europium-conjugated anti-rabbit antibody and 120 nM APC-conjugated anti-GST antibody in Antibody Binding Buffer were then added and the mixture incubated at room temperature for 1.5 hours. The HTRF signal was read on the Envision reader (PerkinElmer Life and Analytical Sciences).

T1 sequence (P53350 whole entry): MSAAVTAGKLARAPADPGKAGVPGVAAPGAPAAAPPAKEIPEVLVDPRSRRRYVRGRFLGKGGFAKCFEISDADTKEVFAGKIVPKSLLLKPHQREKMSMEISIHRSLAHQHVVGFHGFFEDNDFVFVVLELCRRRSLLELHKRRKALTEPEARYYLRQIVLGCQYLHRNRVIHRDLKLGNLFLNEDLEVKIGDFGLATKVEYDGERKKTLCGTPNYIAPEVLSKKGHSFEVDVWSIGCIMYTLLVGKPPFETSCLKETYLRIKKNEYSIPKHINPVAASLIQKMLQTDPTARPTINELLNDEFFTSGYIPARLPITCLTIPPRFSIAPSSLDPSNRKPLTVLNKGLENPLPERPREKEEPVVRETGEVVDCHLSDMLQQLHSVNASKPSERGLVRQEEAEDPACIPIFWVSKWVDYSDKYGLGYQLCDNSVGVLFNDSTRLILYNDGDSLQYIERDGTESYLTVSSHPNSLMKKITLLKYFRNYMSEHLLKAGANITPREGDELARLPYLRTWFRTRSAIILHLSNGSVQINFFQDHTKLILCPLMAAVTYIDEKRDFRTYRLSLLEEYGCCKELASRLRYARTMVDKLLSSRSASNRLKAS

Row | SMILES | IC50 [nM]
1 | COc1cc2ncn(-c3nc(-c4ccc(C)cc4)c(C(=O)O)s3)c2cc1OC [Example 26, 2-(5,6-Dimethoxy-benzoimidazol-1-yl)-4-p-tolyl-thiazole-5-carboxylic acid] | 657
2 | COc1ccc(-c2nc(-n3cnc4cc(OC)c(OC)cc43)sc2C(=O)O)cc1 [Example 28, 2-(5,6-Dimethoxy-benzoimidazol-1-yl)-4-(4-methoxy-phenyl)-thiazole-5-carboxylic acid] | 856
3 | COc1cc2ncn(-c3nc(-c4cccc(F)c4F)c(C(=O)O)s3)c2cc1OC [Example 29, 4-(2,3-Difluoro-phenyl)-2-(5,6-dimethoxy-benzoimidazol-1-yl)-thiazole-5-carboxylic acid] | 538
4 | COc1cc2ncn(-c3nc(-c4ccccc4O)c(C(=O)O)s3)c2cc1OC [Example 30, 2-(5,6-Dimethoxy-benzoimidazol-1-yl)-4-(2-hydroxy-phenyl)-thiazole-5-carboxylic acid] | 275
5 | COc1cc2ncn(-c3nc(-c4cccc(Cl)c4)c(C(=O)O)s3)c2cc1OC [Example 31, 4-(3-Chloro-phenyl)-2-(5,6-dimethoxy-benzoimidazol-1-yl)-thiazole-5-carboxylic acid] | 25
6 | COc1cc2ncn(-c3nc(-c4cccc5ccccc45)c(C(=O)O)s3)c2cc1OC [Example 32, 2-(5,6-Dimethoxy-benzoimidazol-1-yl)-4-naphthalen-1-yl-thiazole-5-carboxylic acid] | 3180
7 | COc1cc2ncn(-c3nc(-c4cccnc4)c(C(=O)O)s3)c2cc1OC [Example 33, 2-(5,6-Dimethoxy-benzoimidazol-1-yl)-4-pyridin-3-yl-thiazole-5-carboxylic acid] | 4410
8 | C=Cc1cccc(-c2nc(-n3cnc4cc(OC)c(OC)cc43)sc2C(=O)O)c1 [Example 40, 2-(5,6-Dimethoxy-benzoimidazol-1-yl)-4-(3-vinyl-phenyl)-thiazole-5-carboxylic acid] | 102
9 | COc1cc2ncn(-c3nc(-c4cc(Cl)cc(Cl)c4)c(C(=O)O)s3)c2cc1OC [Example 41, 4-(3,5-Dichloro-phenyl)-2-(5,6-dimethoxy-benzoimidazol-1-yl)-thiazole-5-carboxylic acid] | 66
10 | COc1cc2ncn(-c3nc(-c4cccc(Br)c4)c(C(=O)O)s3)c2cc1OC [Example 42, 4-(3-Bromo-phenyl)-2-(5,6-dimethoxy-benzoimidazol-1-yl)-thiazole-5-carboxylic acid] | 40
11 | COc1cc2ncn(-c3nc(-c4cccc(C(F)(F)F)c4)c(C(=O)O)s3)c2cc1OC [Example 43, 2-(5,6-Dimethoxy-benzoimidazol-1-yl)-4-(3-trifluoromethyl-phenyl)-thiazole-5-carboxylic acid] | 157

Continued by falling IC50, values first:

Row | IC50 [nM] | SMILES
12 | 2020 | O=C(O)c1sc(-n2cnc3cc(O)c(O)cc32)nc1-c1ccccc1 [Example 39, 2-(5,6-Dihydroxybenzoimidazol-1-yl)-4-phenyl-thiazole-5-carboxylic acid]
13 | 1620 | COc1cc2ncn(-c3nc(-c4ccccc4C)c(C(=O)O)s3)c2cc1OC [Example 27, 2-(5,6-Dimethoxy-benzoimidazol-1-yl)-4-o-tolyl-thiazole-5-carboxylic acid]
14 | 606 | COc1cc2ncn(-c3nc(-c4ccccc4)c(C(=O)Nc4ccccc4)s3)c2cc1OC [Example 38, 2-(5,6-Dimethoxy-benzoimidazol-1-yl)-4-phenyl-thiazole-5-carboxylic acid phenylamide]
15 | 431 | COc1cc2ncn(-c3nc(-c4cccc(Cl)c4)c(C(N)=O)s3)c2cc1OC [Example 36, 4-(3-Chloro-phenyl)-2-(5,6-dimethoxy-benzoimidazol-1-yl)-thiazole-5-carboxylic acid amide]
16 | 211 | COc1cc2ncn(-c3nc(-c4cccc(O)c4)c(C(=O)O)s3)c2cc1OC [Example 34, 2-(5,6-Dimethoxy-benzoimidazol-1-yl)-4-(3-hydroxy-phenyl)-thiazole-5-carboxylic acid]
